Laboratory results published in ChEMBL document CHEMBL1649205, “CraA, a major facilitator superfamily efflux pump associated with chloramphenicol resistance in Acinetobacter baumannii” (2009).
In brackets after ≈: the same amount, converted by molar mass.

What was measured:
Type in all cases: functional
Acinetobacter baumannii [1] = assay: microbe, parasite or virus in culture; details: ATCC 19606
Description: Antimicrobial activity against Acinetobacter baumannii ATCC 19606 expressing open reading frame orf3 encoded efflux pump CraA by Etest

Acinetobacter baumannii [2] = assay: Antimicrobial activity against Acinetobacter baumannii JVAB01 expressing disrupted open reading frame orf3 mutant deficient in efflux pump CraA by Etest
Acinetobacter baumannii [3] = assay: Antimicrobial activity against efflux pump CraA deficient Acinetobacter baumannii JVAB01 receiving pJV103 harboring open reading frame orf3 encoded efflux pump CraA by Etest
Acinetobacter baumannii [4] = assay: Antimicrobial activity against Acinetobacter baumannii ATCC 19606 expressing open reading frame orf3 encoded efflux pump CraA in presence of efflux pump inhibitor phenyl-arginine-beta-naphthylamide by Etest
Acinetobacter baumannii [5] = assay: Antimicrobial activity against Acinetobacter baumannii JVAB01 expressing disrupted open reading frame orf3 mutant deficient in efflux pump CraA in presence of efflux pump inhibitor phenyl-arginine-beta-naphthylamide by Etest
Acinetobacter baumannii [6] = assay: Antimicrobial activity against efflux pump CraA deficient Acinetobacter baumannii JVAB01 receiving pJV103 harboring open reading frame orf3 encoded efflux pump CraA in presence of efflux pump inhibitor phenyl-arginine-beta-naphthylamide by Etest

| Structure (SMILES) | MIC (Acinetobacter baumannii [1]) | MIC (Acinetobacter baumannii [2]) | MIC (Acinetobacter baumannii [3]) | MIC (Acinetobacter baumannii [4]) | MIC (Acinetobacter baumannii [5]) | MIC (Acinetobacter baumannii [6]) |
| --- | --- | --- | --- | --- | --- | --- |
| O=C(N[C@H](CO)[C@H](O)c1ccc([N+](=O)[O-])cc1)C(Cl)Cl [CHLORAMPHENICOL] | > 256 µg/mL | 2 µg/mL (≈ 6.19 µM) | 192 µg/mL (≈ 594 µM) | 32 µg/mL | 1.5 µg/mL | 16 µg/mL |
| CC[C@H]1OC(=O)[C@H](C)[C@@H](O[C@H]2C[C@@](C)(OC)[C@@H](O)[C@H](C)O2)[C@H](C)[C@@H](O[C@@H]2O[C@H](C)C[C@H](N(C)C)[C@H]2O)[C@](C)(O)C[C@@H](C)C(=O)[C@H](C)[C@@H](O)[C@]1(C)O [ERYTHROMYCIN] | 1.5 µg/mL (≈ 2.04 µM) | 1.5 µg/mL (≈ 2.04 µM) | 1.5 µg/mL (≈ 2.04 µM) |  |  |  |
| CCn1cc(C(=O)O)c(=O)c2cc(F)c(N3CCNCC3)cc21 [NORFLOXACIN] | 6 µg/mL (≈ 18.8 µM) | 6 µg/mL (≈ 18.8 µM) | 6 µg/mL (≈ 18.8 µM) |  |  |  |
| CCC[C@@H]1C[C@@H](C(=O)N[C@@H]([C@H]2O[C@H](SC)[C@H](O)[C@@H](O)[C@H]2O)[C@H](C)Cl)N(C)C1 [CLINDAMYCIN] | > 256 µg/mL | > 256 µg/mL | > 256 µg/mL |  |  |  |
| C[C@@H](O)[C@H]1C(=O)N2C(C(=O)O)=C(SCCNC=N)C[C@H]12 [IMIPENEM ANHYDROUS] | 0.75 µg/mL (≈ 2.51 µM) | 0.75 µg/mL (≈ 2.51 µM) | 0.75 µg/mL (≈ 2.51 µM) |  |  |  |
| CN(C)[C@@H]1C(O)=C(C(N)=O)C(=O)[C@@]2(O)C(O)=C3C(=O)c4c(O)cccc4[C@@](C)(O)[C@H]3C[C@@H]12 [TETRACYCLINE] | 6 µg/mL (≈ 13.5 µM) | 6 µg/mL (≈ 13.5 µM) | 96 µg/mL (≈ 216 µM) |  |  |  |
| O=C(O)c1cn(C2CC2)c2cc(N3CCNCC3)c(F)cc2c1=O [CIPROFLOXACIN] | 0.25 µg/mL (≈ 0.754 µM) | 0.25 µg/mL (≈ 0.754 µM) | 0.25 µg/mL (≈ 0.754 µM) |  |  |  |
| CCn1cc(C(=O)O)c(=O)c2ccc(C)nc21 [NALIDIXIC ACID] | 12 µg/mL (≈ 51.7 µM) | 12 µg/mL (≈ 51.7 µM) | 12 µg/mL (≈ 51.7 µM) |  |  |  |
